Measurements reported in paper PMC12333026, “Versatile Imidazole Scaffold with Potent Activity against Multiple Apicomplexan Parasites” (ACS Infectious Diseases, 2025).
Read-outs that look alike come from different tables or passages of the source.

Tests used:
PfPKG = PfPKG (Plasmodium falciparum, UniProt Q8I719); test: PfPKG enzyme activity assay, recombinant WT; format: biochemical
Protocol: (§1) Direct inhibition of recombinant PfPKG phosphorylation activity was carried out using a previously described nonradioactive assay. The assay evaluates PfPKG activity based on changes in initial ATP concentration via luminescence after enzyme phosphorylation of peptide substrate PKCtide ([…]) (SignalChem, Richmond, BC Canada). Enzyme kinase activity was measured in the presence of 26 μM PKCtide; 50.1 nM PfPKG; and 20 μM cGMP in a buffered solution containing 20 mM β-glycerol-phosphate, 20 mM MgCl2, 25 mM HEPES pH 7.5 (KOH), 0.1% BSA and 2 mM DTT. The reaction was activated by the addition of 10 μM ATP with incubation at 30 °C and 90 rpm agitation for 120 min. […] Each assay plate contained reaction wells with no enzyme, no PKCtide peptide substrate and no cGMP as internal controls.

PfPKG T618Q = PfPKG T618Q (Plasmodium falciparum, UniProt Q8I719, T618Q); test: PfPKG enzyme activity assay, T618Q gatekeeper mutant; format: biochemical, P. falciparum
Protocol: as §1

PfCDPK1 = target: T1, PfCDPK1 (Plasmodium falciparum, UniProt P62344); test: CDPK enzyme activity assay, PfCDPK1; format: biochemical, P. falciparum; details: recombinant enzyme; mean ± SD, n = 2–3 experiments; read-out: enzyme IC50 (±SD) PfCDPK1 WT
T1 construct: made in house
Protocol: (§2) Recombinant expression of PfCDPK1, PfCDPK4, TgCDPK1 WT, TgCDPK1-G128M, CpCDPK1 and CpCDPK1-G152 M were purified as previously described. […] These reactions were performed in a buffer composed of 1 mM EGTA (pH 7.2), 10 mM MgCl2, 20 mM HEPES pH 7.5 (KOH), 0.1% BSA. The reactions were initiated with addition of 10 μM ATP and 2 mM CaCl2 as enzyme activation reagent. Reaction plates were incubated for 90 min with 90 rpm agitation at 30 °C. […] KinaseGlo (Promega) luminescence-based assay in which luminescence is inversely related to kinase activity and […] was used as previously described.

PfCDPK4 = target: T2, PfCDPK4 (Plasmodium falciparum, UniProt Q8IBS5); test: CDPK enzyme activity assay, PfCDPK4; format: biochemical, P. falciparum
T2 construct: made in house
Protocol: as §2

[1] = system: P. falciparum 3D7 (WT) asexual stage parasites; test: Growth inhibition assay, asexual stage parasites, WT 3D7; format: cell-based; details: Plasmodium falciparum; 3D7 asexual stage parasites, 72 h; mean ± SD, n = 1–2
Protocol: (§3) lines were maintained with O+ human erythrocytes (BioIVT). WT 3D7A10 and T618Q parasites were kind gifts from Dr. David Fidock (Columbia University) and Dr. David Baker (London School of Tropical Medicine and Hygiene), respectively. Growth inhibition assays were performed as previously described. Parasites were grown in RPMI 1640 medium (Sigma-Aldrich, St. Louis, MO, U.S.A.) supplemented with 5 mg/mL Albumax (Gibco), 50 μg/mL hypoxanthine (Sigma-Aldrich), 2 mg/mL Na2CO3 (Sigma-Aldrich), 25 mM HEPES, and 50 μg/mL gentamicin (Gibco). The growth assay was initiated with cultures with >80% ring stage parasites, diluted to a parasitemia of 0.4% and a hematocrit of 1%. Parasites were transferred to a 96-well plate with test compounds, vehicle, or DHA as positive control, and maintained for 72 h in 5% CO2, 5% O2, and 90% N2 in a humidified chamber. Parasite viability at 72 h was determined by addition of SYBR Green I nucleic acid stain (Thermo Fisher Scientific, S7563) and Mitotracker Deep Red (Fisher M422426) followed by flow cytometry on a BD FACSVerse using BD FACSuite software. Data acquired were analyzed using Flowjo software. EC50 values were derived by nonlinear regression in Graph Pad Prism 7.

[2] = system: P. falciparum T618Q asexual stage parasites; test: Growth inhibition assay, asexual stage parasites expressing PfPKG T618Q; format: cell-based; details: Plasmodium falciparum, 72 h, read-out: P. falciparum EC50 (±SD) T618Q
Protocol: as §3

TgCDPK1 WT = target: T3, TgCDPK1 WT (Toxoplasma gondii, UniProt Q9BJF5); test: biochemical
T3 sequence (Q9BJF5 1-507): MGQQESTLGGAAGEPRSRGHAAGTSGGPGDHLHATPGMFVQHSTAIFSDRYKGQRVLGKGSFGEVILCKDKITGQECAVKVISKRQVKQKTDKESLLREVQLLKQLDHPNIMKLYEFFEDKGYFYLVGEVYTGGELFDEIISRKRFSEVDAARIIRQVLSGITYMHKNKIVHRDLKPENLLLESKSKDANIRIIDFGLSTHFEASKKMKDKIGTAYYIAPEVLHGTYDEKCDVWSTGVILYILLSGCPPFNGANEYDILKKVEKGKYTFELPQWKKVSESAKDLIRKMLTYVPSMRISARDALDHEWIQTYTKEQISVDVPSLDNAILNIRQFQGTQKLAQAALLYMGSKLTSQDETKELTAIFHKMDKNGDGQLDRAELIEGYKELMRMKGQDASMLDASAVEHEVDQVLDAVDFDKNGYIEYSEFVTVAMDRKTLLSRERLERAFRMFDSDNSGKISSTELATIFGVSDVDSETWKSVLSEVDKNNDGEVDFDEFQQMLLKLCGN
Protocol: as §2

TgCDPK1-G128M = target: T4, TgCDPK1-G128M (Toxoplasma gondii, UniProt Q9BJF5, G128M); test: CDPK enzyme activity assay, TgCDPK1 G128M; format: biochemical, T. gondii
T4 construct: made in house
Protocol: as §2

CpCDPK1 = target: T5, CpCDPK1 (Cryptosporidium parvum, UniProt A3FQ16); test: CDPK enzyme activity assay, CpCDPK1 WT; format: biochemical, C. parvum; details: Kinase-Glo assay; mean ± SD, n = 2–3 experiments; read-out: CpCDPK1 IC50 (±SD) WT
T5 construct: made in house
Protocol: as §2

CpCDPK1-G152M = target: T6, CpCDPK1-G152M (Cryptosporidium parvum, UniProt A3FQ16, G152M); test: CDPK enzyme activity assay, CpCDPK1 G152M; format: biochemical, C. parvum
T6 construct: made in house
Protocol: as §2

[3] = system: strain UGA1 expressing nanoluciferase, replication in HCT-8 cells; test: Growth inhibition assay in HCT-8 cells (nanoluciferase strain UGA1); format: cell-based, C. parvum; details: Cryptosporidium parvum, 48 h, nanoluciferase readout, (±SD), read-out: EC50 of replication measured in HCT-8 cells
Protocol: strain UGA1 transfected to express nanoluciferase (Nluc) and obtained from the University of Arizona after propagation in newborn calves. HCT-8 cells were added to a 384-well plate and allowed to grow for 48 h to reach 75–90% confluence. The medium was removed, and test compounds were added in serial dilutions prior to the addition of 1000 oocysts per well in RPMI 1640 medium supplemented with 10% heat inactivated FBS and 1% penicillin streptomycin. Plates were incubated for 48 h; Nano-Glo luciferase reagent (Promega, Madison, WI) was then added, and the plates were read on an EnVision multilabel plate reader (PerkinElmer, Waltham, MA). EC50 curves were calculated as previously described using Prism v6.07 (GraphPad Software, La Jolla, CA).

[4] = system: T. gondii tachyzoites, parental control; test: Proliferation EC50, host fibroblast nuclei count, parental control; format: cell-based; details: Toxoplasma gondii
Protocol: (§4) Human Foreskin Fibroblasts (HFF) were cultured in DMEM, with D-glucose (4.5 g/L), L-glutamine, and sodium pyruvate (110 mg/L) (Gibco) that were further supplemented with 10% Fetal Clone 1 serum (FCS)(HyClone), 50 U/mL penicillin (Gibco), […] streptomycin (Gibco), and 1× GlutaMax (Gibco). HFF cells were cultured in T25 flasks (Corning) in a humidified incubator at 37 °C and 5% CO2. For culture, media was replaced with DMEM, as described above, with 1% FCS. Mutant strains were created as described in.
(§5) Presence of desired mutations in parasite lines, TgCDPK1^G128M, TgCDPK1^G128M + TgMAPKL1^L162Q and […] was verified through sequencing. Compounds were dissolved in DMSO and serially diluted 4-fold across the first 10 wells of a 96 well plate, with the highest drug concentration in the first column being 25 μM. The strain of was then added to the first 11 columns of the 96-well plate at a density of 4000 parasites per well. The 11th column contained no compounds, and the 12th column contained no parasites and no compound. After 5 days of incubation at 37 °C and 5% CO2, cells were washed with PBS and fixed with 4% PFA in PBS (Thermo Fisher Scientific, Waltham, MA, USA). After fixing, cells were washed three times with PBS and stained with 300 nM DAPI in PBS before being washed again three times with PBS.
(§6) Images were acquired in an ImageXpress Pico Automated Cell Imaging System (Molecular Devices, San Jose, CA, USA) with a 4× objective using UV fluorescence. Following imaging, ImageXpress software was used to count objects with a fluorescence intensity ≥8 and a size of 12–30 μm, giving a total count of host cell nuclei for each well. EC50 were determined based on the number of remaining fibroblast nuclei using a nonlinear regression analysis with GraphPad Prism software version 10.0.0 for Windows, GraphPad Software, Boston, Massachusetts USA. Each compound was tested in ≥3 experiments in quadruplicate rows.

[5] = system: T. gondii tachyzoites expressing TgPKG T761Q; test: Proliferation EC50, host fibroblast nuclei count, TgPKG T761Q mutant; format: cell-based; details: for EC50: Toxoplasma gondii, Fibroblast
Protocol: as §4, §5, §6

[6] = system: T. gondii tachyzoites expressing TgCDPK1 G128M; test: Proliferation EC50, host fibroblast nuclei count, TgCDPK1 G128M mutant; format: cell-based
Protocol: as §4, §5, §6

[7] = system: T. gondii tachyzoites expressing TgCDPK1 G128M; TgMAPKL-1 L162Q; test: Proliferation EC50, host fibroblast nuclei count, double mutant; format: cell-based
Protocol: as §4, §5, §6

[8] = system: T. gondii RH strain expressing β-galactosidase, parental; test: Proliferation EC50, β-galactosidase readout, parental strain; format: cell-based; details: Toxoplasma gondii, 72 h, read-out: T. gondii EC50 (±SD) CONTROL
[9] = system: T. gondii RH strain with L162Q substitution in TgMAPKL1; test: Proliferation EC50, β-galactosidase readout, TgMAPKL1 L162Q; format: cell-based
Protocol: as §4
An RH strain of with an L162Q substitution in TgMAPKL1 introduced by CRISPR/Cas9 site directed mutagenesis into a clone expressing β-galactosidase was used to determine the EC50s for proliferation. Compounds were dissolved in DMSO and serially diluted 4-fold across the first 11 columns of a 96 well plate from the highest concentration of 25 μM leaving the final column with no drugs. was added to the first 11 columns of the 96 well plate at 4000 parasites per well. The last column contained no compound. Plates were incubated 72 h at 37 °C and 5% CO2. were quantified by spectrophotometrically measuring the β-galactosidase concentration of each well after cell lysis and exposure to chlorophenol red β-galactopyranose (Sigma-Aldrich, St. Louis, MO) substrate. Each compound was tested at least three times in quadruplicate.

T6 sequence (A3FQ16 whole entry G152M): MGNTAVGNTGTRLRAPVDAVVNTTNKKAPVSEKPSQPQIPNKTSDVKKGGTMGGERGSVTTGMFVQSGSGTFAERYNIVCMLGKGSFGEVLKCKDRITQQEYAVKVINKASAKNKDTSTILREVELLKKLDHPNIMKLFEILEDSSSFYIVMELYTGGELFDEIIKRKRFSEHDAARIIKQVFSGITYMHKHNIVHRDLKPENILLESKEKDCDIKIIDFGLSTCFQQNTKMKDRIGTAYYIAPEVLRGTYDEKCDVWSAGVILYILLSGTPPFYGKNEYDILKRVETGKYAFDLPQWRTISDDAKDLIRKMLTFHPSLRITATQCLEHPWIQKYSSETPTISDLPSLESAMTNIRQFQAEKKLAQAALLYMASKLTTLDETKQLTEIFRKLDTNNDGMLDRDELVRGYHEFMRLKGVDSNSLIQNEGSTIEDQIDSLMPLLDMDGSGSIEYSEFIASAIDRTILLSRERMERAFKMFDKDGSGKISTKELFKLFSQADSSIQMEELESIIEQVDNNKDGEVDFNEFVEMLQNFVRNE
T4 sequence (Q9BJF5 whole entry G128M): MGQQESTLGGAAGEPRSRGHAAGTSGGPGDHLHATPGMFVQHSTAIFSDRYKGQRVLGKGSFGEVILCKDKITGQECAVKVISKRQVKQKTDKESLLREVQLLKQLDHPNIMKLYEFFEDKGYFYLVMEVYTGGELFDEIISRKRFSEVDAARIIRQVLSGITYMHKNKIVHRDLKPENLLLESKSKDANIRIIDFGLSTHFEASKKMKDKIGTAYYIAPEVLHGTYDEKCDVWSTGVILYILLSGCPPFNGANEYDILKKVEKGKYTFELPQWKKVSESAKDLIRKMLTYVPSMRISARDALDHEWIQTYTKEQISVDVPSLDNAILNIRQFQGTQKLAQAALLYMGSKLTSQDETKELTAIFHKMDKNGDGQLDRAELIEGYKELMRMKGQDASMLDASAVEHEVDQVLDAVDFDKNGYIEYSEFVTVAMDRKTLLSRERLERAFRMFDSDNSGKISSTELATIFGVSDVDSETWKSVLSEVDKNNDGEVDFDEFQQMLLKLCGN
Sequence of PfPKG T618Q (Q8I719 whole entry T618Q): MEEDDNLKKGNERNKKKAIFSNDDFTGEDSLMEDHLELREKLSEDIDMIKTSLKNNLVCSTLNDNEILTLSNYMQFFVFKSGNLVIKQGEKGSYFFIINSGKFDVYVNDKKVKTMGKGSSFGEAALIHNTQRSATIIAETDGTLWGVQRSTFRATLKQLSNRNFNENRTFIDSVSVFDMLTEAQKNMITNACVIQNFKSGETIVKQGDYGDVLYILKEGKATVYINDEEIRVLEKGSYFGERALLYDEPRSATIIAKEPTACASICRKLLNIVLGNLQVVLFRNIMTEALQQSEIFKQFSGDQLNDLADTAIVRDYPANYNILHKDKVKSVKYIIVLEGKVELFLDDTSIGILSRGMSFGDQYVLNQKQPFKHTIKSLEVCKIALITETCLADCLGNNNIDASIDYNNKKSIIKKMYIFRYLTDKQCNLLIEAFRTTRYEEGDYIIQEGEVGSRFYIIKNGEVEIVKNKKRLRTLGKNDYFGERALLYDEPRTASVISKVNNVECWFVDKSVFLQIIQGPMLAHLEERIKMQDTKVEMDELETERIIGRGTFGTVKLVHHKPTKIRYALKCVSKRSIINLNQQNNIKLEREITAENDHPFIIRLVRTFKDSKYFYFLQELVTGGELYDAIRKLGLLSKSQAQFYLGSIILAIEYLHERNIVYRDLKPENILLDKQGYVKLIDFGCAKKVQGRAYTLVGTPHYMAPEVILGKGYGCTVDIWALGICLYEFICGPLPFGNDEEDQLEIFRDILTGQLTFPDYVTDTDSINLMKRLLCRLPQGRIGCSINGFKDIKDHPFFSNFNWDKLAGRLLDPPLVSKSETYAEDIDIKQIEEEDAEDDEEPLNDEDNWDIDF
Sequence of PfPKG (Q8I719 whole entry): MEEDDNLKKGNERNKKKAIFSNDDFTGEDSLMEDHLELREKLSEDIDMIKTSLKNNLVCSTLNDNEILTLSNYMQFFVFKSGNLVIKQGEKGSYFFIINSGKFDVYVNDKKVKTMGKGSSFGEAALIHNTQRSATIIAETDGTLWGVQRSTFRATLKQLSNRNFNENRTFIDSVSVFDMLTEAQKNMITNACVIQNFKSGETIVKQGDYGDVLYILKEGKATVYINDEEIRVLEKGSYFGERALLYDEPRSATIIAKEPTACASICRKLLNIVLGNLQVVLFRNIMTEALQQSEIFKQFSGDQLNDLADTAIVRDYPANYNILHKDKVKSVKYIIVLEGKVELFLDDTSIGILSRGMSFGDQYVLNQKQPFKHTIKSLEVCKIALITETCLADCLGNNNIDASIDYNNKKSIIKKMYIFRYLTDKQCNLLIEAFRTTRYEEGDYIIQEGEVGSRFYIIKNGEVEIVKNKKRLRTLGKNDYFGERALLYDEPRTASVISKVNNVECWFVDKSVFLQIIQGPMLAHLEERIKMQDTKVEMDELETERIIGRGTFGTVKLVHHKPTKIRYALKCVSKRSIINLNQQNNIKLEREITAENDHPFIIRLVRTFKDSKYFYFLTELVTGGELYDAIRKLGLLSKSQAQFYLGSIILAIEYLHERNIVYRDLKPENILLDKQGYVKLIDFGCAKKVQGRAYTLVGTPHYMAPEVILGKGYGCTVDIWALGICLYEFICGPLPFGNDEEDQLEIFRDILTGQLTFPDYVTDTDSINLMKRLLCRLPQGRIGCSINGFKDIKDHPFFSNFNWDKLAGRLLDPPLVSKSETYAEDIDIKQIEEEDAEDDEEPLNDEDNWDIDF
T1 sequence (P62344 whole entry): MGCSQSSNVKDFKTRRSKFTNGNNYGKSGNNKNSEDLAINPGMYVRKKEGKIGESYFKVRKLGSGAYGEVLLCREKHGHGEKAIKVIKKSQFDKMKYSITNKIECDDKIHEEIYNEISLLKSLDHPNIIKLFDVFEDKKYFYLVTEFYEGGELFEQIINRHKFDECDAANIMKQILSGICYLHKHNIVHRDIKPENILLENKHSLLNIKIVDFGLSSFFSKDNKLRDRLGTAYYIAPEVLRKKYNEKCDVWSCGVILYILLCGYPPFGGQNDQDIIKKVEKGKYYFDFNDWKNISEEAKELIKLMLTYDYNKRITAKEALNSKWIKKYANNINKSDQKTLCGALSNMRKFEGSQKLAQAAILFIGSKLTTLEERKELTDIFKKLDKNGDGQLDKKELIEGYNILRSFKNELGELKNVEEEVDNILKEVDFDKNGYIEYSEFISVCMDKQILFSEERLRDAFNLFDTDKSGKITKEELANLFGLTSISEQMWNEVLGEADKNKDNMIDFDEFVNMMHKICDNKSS
T2 sequence (Q8IBS5 whole entry): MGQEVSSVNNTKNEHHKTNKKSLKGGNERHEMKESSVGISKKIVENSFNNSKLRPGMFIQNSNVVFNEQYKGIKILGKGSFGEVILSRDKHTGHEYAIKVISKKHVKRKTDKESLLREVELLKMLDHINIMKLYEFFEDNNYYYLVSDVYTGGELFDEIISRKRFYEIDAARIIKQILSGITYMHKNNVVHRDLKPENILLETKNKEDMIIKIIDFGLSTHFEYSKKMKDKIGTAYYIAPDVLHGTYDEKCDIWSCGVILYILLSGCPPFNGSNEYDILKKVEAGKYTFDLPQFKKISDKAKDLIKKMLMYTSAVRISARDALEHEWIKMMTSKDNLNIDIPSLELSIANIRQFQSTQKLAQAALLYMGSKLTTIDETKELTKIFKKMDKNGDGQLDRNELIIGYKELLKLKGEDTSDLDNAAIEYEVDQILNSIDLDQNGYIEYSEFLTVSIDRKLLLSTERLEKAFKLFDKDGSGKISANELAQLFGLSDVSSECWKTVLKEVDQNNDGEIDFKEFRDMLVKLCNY
T5 sequence (A3FQ16 1-538): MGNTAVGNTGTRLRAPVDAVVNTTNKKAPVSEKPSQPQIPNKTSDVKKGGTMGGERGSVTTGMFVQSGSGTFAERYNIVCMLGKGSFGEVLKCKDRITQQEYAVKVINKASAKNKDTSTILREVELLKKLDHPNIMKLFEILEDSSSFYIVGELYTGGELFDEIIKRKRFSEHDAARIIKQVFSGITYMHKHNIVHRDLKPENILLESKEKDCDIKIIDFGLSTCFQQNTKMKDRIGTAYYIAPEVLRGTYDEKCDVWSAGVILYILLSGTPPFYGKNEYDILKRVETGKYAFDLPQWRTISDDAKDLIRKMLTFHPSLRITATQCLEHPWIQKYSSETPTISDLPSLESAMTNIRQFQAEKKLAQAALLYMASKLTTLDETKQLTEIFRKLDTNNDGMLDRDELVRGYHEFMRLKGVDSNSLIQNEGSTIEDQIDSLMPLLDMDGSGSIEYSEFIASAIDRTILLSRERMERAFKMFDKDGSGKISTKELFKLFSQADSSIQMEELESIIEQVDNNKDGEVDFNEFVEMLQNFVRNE

O=C(c1nccs1)N1CC[C@@H](Nc2nccc(-n3cc(C4CC4)nc3-c3cccc(Cl)c3)n2)C1 [(R)-RY-1-185]
IC50 (PfPKG): 190 nM
IC50 (PfPKG T618Q): > 10000 nM
IC50 (PfCDPK1): 6690 nM
IC50 (PfCDPK4): 2210 nM
EC50 [1]: 6500 nM
EC50 [2]: 10100 nM
IC50 (TgCDPK1 WT): 60 nM
IC50 (TgCDPK1-G128M): > 30000 nM
TgCDPK1 G128M mutant enzyme less sensitive (TgCDPK1-G128M; G128M versus WT enzyme): ≥ 600 fold
IC50 (CpCDPK1): 90 nM
IC50 (CpCDPK1-G152M): > 30000 nM
CpCDPK1 G152M mutant enzyme less sensitive (CpCDPK1-G152M; G152M versus WT enzyme): ≥ 300 ×
EC50 [3]: 10800 nM
EC50 ([4]; read-out: T. gondii EC50 (±SD) CONTROL, tachyzoites, parental control of CDPK1 G128M, mean ± SD, n = 3–5): 150 nM
EC50 ([4]; read-out: T. gondii EC50 (±SD) CONTROL, tachyzoites, parental control of PKG T761Q, mean ± SD, n = 3–5): 100 nM
EC50 ([4]; read-out: T. gondii EC50 (±SD) CONTROL, tachyzoites, parental control of the double mutant, mean ± SD, n = 3–5): 120 nM
EC50 ([4]; read-out: average EC50 against parental parasites, parental of TgPKG T761Q): 94 nM
EC50 ([5]; read-out: T. gondii EC50 (±SD) PKGT761Q): 170 nM
EC50 ([5]; read-out: average EC50 against the T761Q mutants): 161 nM
increase in EC50, T761Q mutants versus parental ([5]; average): 1.7 fold
EC50 for G128M parasites higher compared to the parental strain ([6]; TgCDPK1 G128M versus parental): 1.8 fold
EC50 ([6]; Toxoplasma gondii, Fibroblast, read-out: T. gondii EC50 (±SD) CDPK1 G128M): 300 nM
increase in EC50 against double mutant TgCDPK1 G128M; TgMAPKL-1 L162Q versus parental control [7]: 9 fold
EC50 ([7]; Toxoplasma gondii, Fibroblast, read-out: T. gondii EC50 (±SD) CDPK1 G128M, MAPKL1 L162Q): 1210 nM
EC50 [8]: 120 nM
increase in EC50 against TgMAPKL-1 L162Q parasites versus parental strain [9]: approximately 2.75 fold
EC50 ([9]; Toxoplasma gondii, 72 h, read-out: T. gondii EC50 (±SD) MAPKL1 L162Q): 330 nM
